Measured values: patent US20200216439A1, “HETERO-1,5,6,7-TETRAHYDRO-4H-INDOL-4-ONES” (BAYER PHARMA AKTIENGESELLSCHAFT, priority 2015, published 2020)

target: T1, catalytic domain of human Bub1 (amino acids 704-1085) (Homo sapiens, UniProt O43683); assay: Bub1 kinase assay (TR-FRET); format: biochemical; conditions: TR-FRET; ATP 10 μM, peptide substrate 1 μM; 60 min at 22° C.; average or median if tested more than once; read-out: Inhibition of Bub1 kinase IC50
T1 construct: catalytic domain of human Bub1 (amino acids 704-1085); His6 (N); made in house; host or cells: Hi5 insect cells
Text: Bub1-inhibitory activities of compounds described in the present invention were quantified using a time-resolved fluorescence energy transfer (TR-FRET) kinase assay which measures phosphorylation of the synthetic peptide Biotin-Ahx-VLLPKKSFAEPG (C-terminus in amide form), purchased from e.g. Biosyntan (Berlin, Germany) by the (recombinant) catalytic domain of human Bub1 (amino acids 704-1085), expressed in Hi5 insect cells with an N-terminal His6-tag and purified by affinity—(Ni-NTA) and size exclusion chromatography.
In a typical assay 11 different concentrations of each compound (0.1 nM, 0.33 nM, 1.1 nM, 3.8 nM, 13 nM, 44 nM, 0.15 μM, 0.51 μM, 1.7 μM, 5.9 μM and 20 μM) were tested in duplicate within the same microtiter plate. To this end, 100-fold concentrated compound solutions (in DMSO) were previously prepared by serial dilution (1:3.4) of 2 mM stocks in a clear low volume 384-well source microtiter plate (Greiner Bio-One, Frickenhausen, Germany), from which 50 nl of compounds were transferred into a black low volume test microtiter plate from the same supplier. Subsequently, 2 μL of Bub1 (the final concentration of Bub1 was adjusted depending on the activity of the enzyme lot in order to be within the linear dynamic range of the assay: typically ˜200 ng/mL were used) in aqueous assay buffer [50 mM Tris/HCl pH 7.5, 10 mM magnesium chloride (MgCl2), 200 mM potassium chloride (KCl), 1.0 mM dithiothreitol (DTT), 0.1 mM sodium ortho-vanadate, 1% (v/v) glycerol, 0.01% (w/v) bovine serum albumine (BSA), 0.005% (v/v) Trition X-100 (Sigma), 1× Complete EDTA-free protease inhibitor mixture (Roche)] were added to the compounds in the test plate and the mixture was incubated for 15 min at 22° C. to allow pre-equilibration of the putative enzyme-inhibitor complexes before the start of the kinase reaction, which was initiated by the addition of 3 μL 1.67-fold concentrated solution (in assay buffer) of adenosine-tri-phosphate (ATP, 10 μM final concentration) and peptide substrate (1 μM final concentration). The resulting mixture (5 μL final volume) was incubated at 22° C. during 60 min., and the reaction was stopped by the addition of 5 μL of an aqueous EDTA-solution (50 mM EDTA, in 100 mM HEPES pH 7.5 and 0.2% (w/v) bovine serum albumin) which also contained the TR-FRET detection reagents (0.2 μM streptavidin-XL665 [Cisbio Bioassays, Codolet, France] and 1 nM anti-phospho-Serine antibody [Merck Millipore, cat. #35-002] and 0.4 nM LANCE EU-W1024 labeled anti-mouse IgG antibody [Perkin-Elmer, product no. AD0077, alternatively a Terbium-cryptate-labeled anti-mouse IgG antibody from Cisbio Bioassays can be used]). The stopped reaction mixture was further incubated 1 h at 22° C. in order to allow the formation of complexes between peptides and detection reagents. Subsequently, the amount of product was evaluated by measurement of the resonance energy transfer from the Eu-chelate-antibody complex recognizing the Phosphoserine residue to the streptavidin-XL665 bound to the biotin moiety of the peptide. To this end, the fluorescence emissions at 620 nm and 665 nm after excitation at 330-350 nm were measured in a TR-FRET plate reader, e.g. a Rubystar or Pherastar (both from BMG Labtechnologies, Offenburg, Germany) or a Viewlux (Perkin-Elmer) and the ratio of the emissions (665 nm/[…]) was taken as indicator for the amount of phosphorylated substrate. The data were normalised using two sets of control wells for high—(=enzyme reaction without inhibitor=0%=Minimum inhibition) and low—(=all assay components without enzyme=100%=Maximum inhibition) Bub1 activity. IC50 values were calculated by fitting the normalized inhibition data to a 4-parameter logistic equation (Minimum, Maximum, IC50, Hill; Y=Max+(Min−Max)/(1+(X/IC50)Hill)).

T1 sequence (O43683 704-1085): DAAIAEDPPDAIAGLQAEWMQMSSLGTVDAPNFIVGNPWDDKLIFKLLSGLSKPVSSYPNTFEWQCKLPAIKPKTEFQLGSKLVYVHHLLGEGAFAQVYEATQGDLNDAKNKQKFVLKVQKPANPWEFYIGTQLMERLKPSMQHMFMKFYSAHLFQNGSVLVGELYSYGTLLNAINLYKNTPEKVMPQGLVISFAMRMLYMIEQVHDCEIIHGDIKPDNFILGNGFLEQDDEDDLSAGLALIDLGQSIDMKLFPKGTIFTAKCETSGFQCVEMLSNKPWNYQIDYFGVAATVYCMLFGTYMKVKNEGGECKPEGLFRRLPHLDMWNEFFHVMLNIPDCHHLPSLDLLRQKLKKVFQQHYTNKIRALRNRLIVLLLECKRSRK

Point of comparison: `CC(=O)Nc1cc(-c2[nH]c3c(c2Nc2ccccc2)C(=O)CN(S(C)(=O)=O)C3)ccn1` [Example 32, N-{4-[6-(Methylsulfonyl)-4-oxo-3-(phenylamino)-4,5,6,7-tetrahydro-1H-pyrrolo[2,3-c]pyridin-2-yl]pyridin-2-yl}acetamide], IC50 4 nM. Against it:
- COC(=O)N1CC(=O)c2c([nH]c(-c3ccnc(NC(C)=O)c3)c2Nc2ccccc2)C1 [Example 31, Methyl 2-[2-(acetylamino)pyridin-4-yl]-4-oxo-3-(phenylamino)-1,4,5,7-tetrahydro-6H-pyrrolo[2,3-c]pyridine-6-carboxylate] — 1.8-fold higher, 7 nM
- O=C1COCc2[nH]c(-c3ccncc3F)c(Nc3ccccc3)c21 [Example 33, 2-(3-Fluoropyridin-4-yl)-3-(phenylamino)-1,7-dihydropyrano[3,4-b]pyrrol-4(5H)-one] — 4.2-fold higher, 17 nM
- CC(=O)Nc1cc(-c2[nH]c3c(c2Nc2ccccc2)C(=O)COC3)ccn1 [Example 34, N-{4-[4-Oxo-3-(phenylamino)-1,4,5,7-tetrahydropyrano[3,4-b]pyrrol-2-yl]pyridin-2-yl}acetamide] — 15-fold higher, 60 nM
- O=C1COCc2[nH]c(-c3ccnc(NC(=O)C4CC4)c3)c(Nc3ccccc3)c21 [Example 35, N-{4-[4-Oxo-3-(phenylamino)-1,4,5,7-tetrahydropyrano[3,4-b]pyrrol-2-yl]pyridin-2-yl}cyclopropanecarboxamide] — 14-fold higher, 55 nM
- O=C(CC(F)(F)F)Nc1cc(-c2[nH]c3c(c2Nc2ccccc2)C(=O)COC3)ccn1 [Example 36, 3,3,3-Trifluoro-N-{4-[4-oxo-3-(phenylamino)-1,4,5,7-tetrahydropyrano[3,4-b]pyrrol-2-yl]pyridin-2-yl}propanamide] — 20-fold higher, 79 nM
- Cc1cnccc1-c1[nH]c2c(c1Nc1ccccc1)C(=O)CSC2 [Example 37, 2-(3-Methylpyridin-4-yl)-3-(phenylamino)-1,7-dihydrothiopyrano[3,4-b]pyrrol-4(5H)-one] — 120-fold higher, 482 nM
- O=C1CSCc2[nH]c(-c3ccncc3Cl)c(Nc3ccccc3)c21 [Example 38, 2-(3-Chloropyridin-4-yl)-3-(phenylamino)-1,7-dihydrothiopyrano[3,4-b]pyrrol-4(5H)-one] — 10-fold higher, 40 nM
- COc1cnccc1-c1[nH]c2c(c1Nc1ccccc1)C(=O)CSC2 [Example 39, 2-(3-Methoxypyridin-4-yl)-3-(phenylamino)-1,7-dihydrothiopyrano[3,4-b]pyrrol-4(5H)-one] — 20-fold higher, 81 nM
- Cc1cnccc1-c1[nH]c2c(c1Nc1ccccc1)C(=O)COC2 [Example 40, 2-(3-Methylpyridin-4-yl)-3-(phenylamino)-1,7-dihydropyrano[3,4-b]pyrrol-4(5H)-one] — 370-fold higher, 1470 nM
- O=C1COCc2[nH]c(-c3ccncc3Br)c(Nc3ccccc3)c21 [Example 41, 2-(3-Bromopyridin-4-yl)-3-(phenylamino)-1,7-dihydropyrano[3,4-b]pyrrol-4(5H)-one] — 58-fold higher, 233 nM
- O=C1COCc2[nH]c(-c3ccncc3Cl)c(Nc3ccccc3)c21 [Example 42, 2-(3-Chloropyridin-4-yl)-3-(phenylamino)-1,7-dihydropyrano[3,4-b]pyrrol-4(5H)-one] — 19-fold higher, 77 nM
- COc1cnccc1-c1[nH]c2c(c1Nc1ccccc1)C(=O)COC2 [Example 43, 2-(3-Methoxypyridin-4-yl)-3-(phenylamino)-1,7-dihydropyrano[3,4-b]pyrrol-4(5H)-one] — 21-fold higher, 84 nM
- CCC(=O)Nc1cc(-c2[nH]c3c(c2Nc2ccccc2)C(=O)COC3)ccn1 [Example 44, N-{4-[4-Oxo-3-(phenylamino)-1,4,5,7-tetrahydropyrano[3,4-b]pyrrol-2-yl]pyridin-2-yl}propanamide] — 12-fold higher, 50 nM
- COCC(=O)Nc1cc(-c2[nH]c3c(c2Nc2ccccc2)C(=O)COC3)ccn1 [Example 45, 2-Methoxy-N-{4-[4-oxo-3-(phenylamino)-1,4,5,7-tetrahydropyrano[3,4-b]pyrrol-2-yl]pyridin-2-yl}acetamide] — 15-fold higher, 59 nM
- CSCC(=O)Nc1cc(-c2[nH]c3c(c2Nc2ccccc2)C(=O)COC3)ccn1 [Example 46, 2-(Methylsulfanyl)-N-{4-[4-oxo-3-(phenylamino)-1,4,5,7-tetrahydropyrano[3,4-b]pyrrol-2-yl]pyridin-2-yl}acetamide] — 23-fold higher, 93 nM
- C[S+]([O-])CC(=O)Nc1cc(-c2[nH]c3c(c2Nc2ccccc2)C(=O)COC3)ccn1 (stereo not drawn) [Example 47, 2-(Methylsulfinyl)-N-{4-[4-oxo-3-(phenylamino)-1,4,5,7-tetrahydropyrano[3,4-b]pyrrol-2-yl]pyridin-2-yl}acetamide] — 85-fold higher, 341 nM
- CS(=O)(=O)CC(=O)Nc1cc(-c2[nH]c3c(c2Nc2ccccc2)C(=O)COC3)ccn1 [Example 48, 2-(Methylsulfonyl)-N-{4-[4-oxo-3-(phenylamino)-1,4,5,7-tetrahydropyrano[3,4-b]pyrrol-2-yl]pyridin-2-yl}acetamide] — 29-fold higher, 115 nM
- O=C(Nc1cc(-c2[nH]c3c(c2Nc2ccccc2)C(=O)COC3)ccn1)c1cscn1 [Example 49, N-{4-[4-Oxo-3-(phenylamino)-1,4,5,7-tetrahydropyrano[3,4-b]pyrrol-2-yl]pyridin-2-yl}-1,3-thiazole-4-carboxamide] — 13-fold higher, 51 nM
- O=C(Nc1cc(-c2[nH]c3c(c2Nc2ccccc2)C(=O)COC3)ccn1)c1cnco1 [Example 50, N-{4-[4-Oxo-3-(phenylamino)-1,4,5,7-tetrahydropyrano[3,4-b]pyrrol-2-yl]pyridin-2-yl}-1,3-oxazole-5-carboxamide] — 6.5-fold higher, 26 nM
- O=C(Nc1cc(-c2[nH]c3c(c2Nc2ccccc2)C(=O)COC3)ccn1)c1cncs1 [Example 51, N-{4-[4-Oxo-3-(phenylamino)-1,4,5,7-tetrahydropyrano[3,4-b]pyrrol-2-yl]pyridin-2-yl}-1,3-thiazole-5-carboxamide] — 11-fold higher, 44 nM
- O=C(Nc1cc(-c2[nH]c3c(c2Nc2ccccc2)C(=O)COC3)ccn1)c1ccc(F)cc1 [Example 52, 4-Fluoro-N-{4-[4-oxo-3-(phenylamino)-1,4,5,7-tetrahydropyrano[3,4-b]pyrrol-2-yl]pyridin-2-yl}benzamide] — 2.5-fold higher, 10 nM
- COC(=O)Nc1cc(-c2[nH]c3c(c2Nc2ccccc2)C(=O)COC3)ccn1 [Example 53, Methyl {4-[4-oxo-3-(phenylamino)-1,4,5,7-tetrahydropyrano[3,4-b]pyrrol-2-yl]pyridin-2-yl}carbamate] — 20-fold higher, 82 nM
- CCNC(=O)Nc1cc(-c2[nH]c3c(c2Nc2ccccc2)C(=O)COC3)ccn1 [Example 54, 1-Ethyl-3-{4-[4-oxo-3-(phenylamino)-1,4,5,7-tetrahydropyrano[3,4-b]pyrrol-2-yl]pyridin-2-yl}urea] — 19-fold higher, 77 nM
- O=C(Nc1cc(-c2[nH]c3c(c2Nc2ccccc2)C(=O)COC3)ccn1)NC1CC1 [Example 55, 1-Cyclopropyl-3-{4-[4-oxo-3-(phenylamino)-1,4,5,7-tetrahydropyrano[3,4-b]pyrrol-2-yl]pyridin-2-yl}urea] — 24-fold higher, 98 nM
- O=C1CN(C(=O)CCO)Cc2[nH]c(-c3ccncc3)c(Nc3ccccc3)c21 [Example 56, 6-(3-Hydroxypropanoyl)-3-(phenylamino)-2-(pyridin-4-yl)-1,5,6,7-tetrahydro-4H-pyrrolo[2,3-c]pyridin-4-one] — within 1.5-fold, 5 nM
- CC(C)(O)CC(=O)N1CC(=O)c2c([nH]c(-c3ccncc3)c2Nc2ccccc2)C1 [Example 57, 6-(3-Hydroxy-3-methylbutanoyl)-3-(phenylamino)-2-(pyridin-4-yl)-1,5,6,7-tetrahydro-4H-pyrrolo[2,3-c]pyridin-4-one] — 2-fold higher, 8 nM
